According to PubChem BioAssay (NCI):
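Assay format: 96-well plates, 48-hour exposure. Here, GI50 denotes the concentration required for 50% inhibition of growth. Definition used: TGI = concentration required for complete inhibition of growth.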

Legend:
Assay in all cases: DTP human tumour cell line panel, 48 h
MDA-MB-231 breast = system: MDA-MB-231 breast
A498 renal = system: A498 renal
MALME-3M melanoma = system: MALME-3M melanoma
SNB-19 CNS = system: SNB-19 CNS
MDA-N = system: MDA-N
DU-145 prostate = system: DU-145 prostate
RXF 393 renal = system: RXF 393 renal
PC-3 prostate = system: PC-3 prostate
MDA-MB-435 = system: MDA-MB-435
HT29 colon = system: HT29 colon
ACHN renal = system: ACHN renal
CCRF-CEM leukemia = system: CCRF-CEM leukemia
RPMI-8226 leukemia = system: RPMI-8226 leukemia
U251 CNS = system: U251 CNS
SK-MEL-2 melanoma = system: SK-MEL-2 melanoma
OVCAR-3 ovarian = system: OVCAR-3 ovarian
OVCAR-5 ovarian = system: OVCAR-5 ovarian
SNB-75 CNS = system: SNB-75 CNS
SK-MEL-28 melanoma = system: SK-MEL-28 melanoma
NCI-H522 lung = system: NCI-H522 lung
OVCAR-8 ovarian = system: OVCAR-8 ovarian
SF-268 CNS = system: SF-268 CNS
HCT-15 colon = system: HCT-15 colon
TK-10 renal = system: TK-10 renal
HL-60(TB) leukemia = system: HL-60(TB) leukemia
MOLT-4 leukemia = system: MOLT-4 leukemia
SF-295 CNS = system: SF-295 CNS
NCI-H226 lung = system: NCI-H226 lung
UACC-257 melanoma = system: UACC-257 melanoma
UO-31 renal = system: UO-31 renal
COLO 205 colon = system: COLO 205 colon
IGROV1 ovarian = system: IGROV1 ovarian
K-562 leukemia = system: K-562 leukemia
SW-620 colon = system: SW-620 colon
SK-OV-3 ovarian = system: SK-OV-3 ovarian
HCC-2998 colon = system: HCC-2998 colon
HS 578T breast = system: HS 578T breast
UACC-62 melanoma = system: UACC-62 melanoma
HCT-116 colon = system: HCT-116 colon
T-47D breast = system: T-47D breast
M14 melanoma = system: M14 melanoma
SN12C renal = system: SN12C renal
OVCAR-4 ovarian = system: OVCAR-4 ovarian
786-0 renal = system: 786-0 renal
NCI/ADR-RES ovarian = system: NCI/ADR-RES ovarian
KM12 colon = system: KM12 colon
SF-539 CNS = system: SF-539 CNS
MCF7 breast = system: MCF7 breast
LOX IMVI melanoma = system: LOX IMVI melanoma
NCI-H460 lung = system: NCI-H460 lung
NCI-H23 lung = system: NCI-H23 lung
HOP-62 NSCLC = system: HOP-62 NSCLC
SR leukemia = system: SR leukemia
CAKI-1 renal = system: CAKI-1 renal
EKVX NSCLC = system: EKVX NSCLC
A549 NSCLC = system: A549 NSCLC
SK-MEL-5 melanoma = system: SK-MEL-5 melanoma

CCC1=C(C)c2cc3[n-]c(cc4nc(c(C=O)c5[n-]c(cc1n2)c(C)c5CC)C(C)=C4CC)c(C)c3CC.[Ni+2]
GI50 (MDA-MB-231 breast): > 100 µM
TGI (MDA-MB-231 breast): > 100 µM
GI50 (A498 renal): > 100 µM
TGI (A498 renal): > 100 µM
GI50 (MALME-3M melanoma): > 100 µM
TGI (MALME-3M melanoma): > 100 µM
GI50 (SNB-19 CNS): > 100 µM
TGI (SNB-19 CNS): > 100 µM
GI50 (MDA-N): > 100 µM
TGI (MDA-N): > 100 µM
GI50 (DU-145 prostate): > 100 µM
TGI (DU-145 prostate): > 100 µM
GI50 (RXF 393 renal): > 100 µM
TGI (RXF 393 renal): > 100 µM
GI50 (PC-3 prostate): > 100 µM
TGI (PC-3 prostate): > 100 µM
GI50 (MDA-MB-435): > 100 µM
TGI (MDA-MB-435): > 100 µM
GI50 (HT29 colon): > 100 µM
TGI (HT29 colon): > 100 µM
GI50 (ACHN renal): > 100 µM
TGI (ACHN renal): > 100 µM
GI50 (CCRF-CEM leukemia): > 100 µM
TGI (CCRF-CEM leukemia): > 100 µM
GI50 (RPMI-8226 leukemia): > 100 µM
TGI (RPMI-8226 leukemia): > 100 µM
GI50 (U251 CNS): > 100 µM
TGI (U251 CNS): > 100 µM
GI50 (SK-MEL-2 melanoma): > 100 µM
TGI (SK-MEL-2 melanoma): > 100 µM
GI50 (OVCAR-3 ovarian): > 100 µM
TGI (OVCAR-3 ovarian): > 100 µM
GI50 (OVCAR-5 ovarian): > 100 µM
TGI (OVCAR-5 ovarian): > 100 µM
GI50 (SNB-75 CNS): 93.6 µM
TGI (SNB-75 CNS): > 100 µM
GI50 (SK-MEL-28 melanoma): > 100 µM
TGI (SK-MEL-28 melanoma): > 100 µM
GI50 (NCI-H522 lung): > 100 µM
TGI (NCI-H522 lung): > 100 µM
GI50 (OVCAR-8 ovarian): > 100 µM
TGI (OVCAR-8 ovarian): > 100 µM
GI50 (SF-268 CNS): > 100 µM
TGI (SF-268 CNS): > 100 µM
GI50 (HCT-15 colon): > 100 µM
TGI (HCT-15 colon): > 100 µM
GI50 (TK-10 renal): > 100 µM
TGI (TK-10 renal): > 100 µM
GI50 (HL-60(TB) leukemia): > 100 µM
TGI (HL-60(TB) leukemia): > 100 µM
GI50 (MOLT-4 leukemia): > 100 µM
TGI (MOLT-4 leukemia): > 100 µM
GI50 (SF-295 CNS): > 100 µM
TGI (SF-295 CNS): > 100 µM
GI50 (NCI-H226 lung): > 100 µM
TGI (NCI-H226 lung): > 100 µM
GI50 (UACC-257 melanoma): > 100 µM
TGI (UACC-257 melanoma): > 100 µM
GI50 (UO-31 renal): > 100 µM
TGI (UO-31 renal): > 100 µM
GI50 (COLO 205 colon): > 100 µM
TGI (COLO 205 colon): > 100 µM
GI50 (IGROV1 ovarian): > 100 µM
TGI (IGROV1 ovarian): > 100 µM
GI50 (K-562 leukemia): > 100 µM
TGI (K-562 leukemia): > 100 µM
GI50 (SW-620 colon): > 100 µM
TGI (SW-620 colon): > 100 µM
GI50 (SK-OV-3 ovarian): > 100 µM
TGI (SK-OV-3 ovarian): > 100 µM
GI50 (HCC-2998 colon): > 100 µM
TGI (HCC-2998 colon): > 100 µM
GI50 (HS 578T breast): > 100 µM
TGI (HS 578T breast): > 100 µM
GI50 (UACC-62 melanoma): > 100 µM
TGI (UACC-62 melanoma): > 100 µM
GI50 (HCT-116 colon): > 100 µM
TGI (HCT-116 colon): > 100 µM
GI50 (T-47D breast): > 100 µM
TGI (T-47D breast): > 100 µM
GI50 (M14 melanoma): > 100 µM
TGI (M14 melanoma): > 100 µM
GI50 (SN12C renal): > 100 µM
TGI (SN12C renal): > 100 µM
GI50 (OVCAR-4 ovarian): > 100 µM
TGI (OVCAR-4 ovarian): > 100 µM
GI50 (786-0 renal): > 100 µM
TGI (786-0 renal): > 100 µM
GI50 (NCI/ADR-RES ovarian): > 100 µM
TGI (NCI/ADR-RES ovarian): > 100 µM
GI50 (KM12 colon): > 100 µM
TGI (KM12 colon): > 100 µM
GI50 (SF-539 CNS): > 100 µM
TGI (SF-539 CNS): > 100 µM
GI50 (MCF7 breast): > 100 µM
TGI (MCF7 breast): > 100 µM
GI50 (LOX IMVI melanoma): > 100 µM
TGI (LOX IMVI melanoma): > 100 µM
GI50 (NCI-H460 lung): > 100 µM
TGI (NCI-H460 lung): > 100 µM
GI50 (NCI-H23 lung): > 100 µM
TGI (NCI-H23 lung): > 100 µM
GI50 (HOP-62 NSCLC): > 100 µM
TGI (HOP-62 NSCLC): > 100 µM
GI50 (SR leukemia): 0.022 µM
TGI (SR leukemia): > 100 µM

CN(C)C=Nc1ccc2nonc2c1
TGI (MDA-MB-231 breast): > 100 µM
TGI (A498 renal): > 100 µM
TGI (MALME-3M melanoma): > 100 µM
TGI (SNB-19 CNS): > 100 µM
TGI (MDA-N): > 100 µM
TGI (DU-145 prostate): > 100 µM
TGI (CAKI-1 renal): > 100 µM
TGI (EKVX NSCLC): > 100 µM
TGI (RXF 393 renal): > 100 µM
TGI (PC-3 prostate): > 100 µM
TGI (MDA-MB-435): > 100 µM
TGI (HT29 colon): > 100 µM
TGI (ACHN renal): > 100 µM
TGI (CCRF-CEM leukemia): > 100 µM
TGI (RPMI-8226 leukemia): > 100 µM
TGI (SK-MEL-2 melanoma): > 100 µM
TGI (A549 NSCLC): > 100 µM
TGI (OVCAR-3 ovarian): > 100 µM
TGI (OVCAR-5 ovarian): > 100 µM
TGI (SNB-75 CNS): > 100 µM
TGI (SK-MEL-28 melanoma): > 100 µM
TGI (NCI-H522 lung): > 100 µM
TGI (OVCAR-8 ovarian): > 100 µM
TGI (SF-268 CNS): > 100 µM
TGI (HCT-15 colon): > 100 µM
TGI (TK-10 renal): > 100 µM
TGI (HL-60(TB) leukemia): > 100 µM
TGI (MOLT-4 leukemia): > 100 µM
TGI (SF-295 CNS): > 100 µM
TGI (NCI-H226 lung): > 100 µM
TGI (UACC-257 melanoma): > 100 µM
TGI (UO-31 renal): > 100 µM
TGI (COLO 205 colon): > 100 µM
TGI (IGROV1 ovarian): > 100 µM
TGI (K-562 leukemia): > 100 µM
TGI (SW-620 colon): > 100 µM
TGI (SK-OV-3 ovarian): > 100 µM
TGI (HCC-2998 colon): > 100 µM
TGI (HS 578T breast): > 100 µM
TGI (UACC-62 melanoma): > 100 µM
TGI (HCT-116 colon): > 100 µM
TGI (T-47D breast): > 100 µM
TGI (M14 melanoma): > 100 µM
TGI (SN12C renal): > 100 µM
TGI (OVCAR-4 ovarian): > 100 µM
TGI (786-0 renal): > 100 µM
TGI (NCI/ADR-RES ovarian): > 100 µM
TGI (KM12 colon): > 100 µM
TGI (SF-539 CNS): > 100 µM
TGI (MCF7 breast): > 100 µM
TGI (SK-MEL-5 melanoma): > 100 µM
TGI (NCI-H460 lung): > 100 µM
TGI (NCI-H23 lung): > 100 µM
TGI (HOP-62 NSCLC): > 100 µM
TGI (SR leukemia): > 100 µM
